Test results taken from patent US20070128217A1 (priority 2003, published 2007).

Legend:
[1] = test system: antibodies in sera from SARS patients (sera 1a, 1b, 2, 6, 37, 62, London, SARS-yellow, SARS-green); type: binding, human; set-up: Binding of serum 6 to linear peptides of protein X1 of SARS-CoV Urbani / Binding of serum 37 to linear peptides of protein X1 of SARS-CoV Urbani / Binding of serum 6 to looped/cyclic peptide (PEPSCAN-ELISA) / Binding of serum 37 to looped/cyclic peptide (PEPSCAN-ELISA) / Binding of serum 37 to looped/cyclic peptides of protein X1 of SARS-CoV Urbani / Binding of serum 6 to linear peptides of protein X2 / Binding of serum 37 to linear peptides of protein X2 / Binding of serum 37 to looped/cyclic peptides of protein X2 of SARS-CoV Urbani / Binding of serum 6 to linear peptides of protein M of SARS-CoV Urbani / Binding of serum 37 to linear peptides of protein M of SARS-CoV Urbani / Binding of serum 6 to looped/cyclic peptides of protein M of SARS-CoV Urbani / Binding of serum 37 to looped/cyclic peptides of protein M of SARS-CoV Urbani / Binding of serum 6 to linear peptides of protein X3 of SARS-CoV Urbani / Binding of serum 37 to linear peptides of protein X3 of SARS-CoV Urbani / Binding of serum 37 to looped/cyclic peptides of protein X3 of SARS-CoV Urbani / Binding of serum 6 to linear peptides of protein X4 of SARS-CoV Urbani / Binding of serum 37 to linear peptides of protein X4 of SARS-CoV Urbani / Binding of serum 37 to looped/cyclic peptides of protein X4 of SARS-CoV Urbani / Binding of serum 6 to linear peptides of protein X5 of SARS-CoV Urbani / Binding of serum 37 to linear peptides of protein X5 of SARS-CoV Urbani / Binding of serum 37 to looped/cyclic peptides of protein X5 of SARS-CoV Urbani / Binding of serum 6 to linear peptides of protein N of SARS-CoV Urbani / Binding of serum 37 to linear peptides of protein N of SARS-CoV Urbani / Binding of serum 6 to linear peptide (PEPSCAN-ELISA) / Binding of serum 1a to looped/cyclic peptides of protein N of SARS-CoV Urbani / Binding of serum 1b to looped/cyclic peptides of protein N of SARS-CoV Urbani / Binding of serum 2 to looped/cyclic peptides of protein N of SARS-CoV Urbani / Binding of serum 6 to looped/cyclic peptides of protein N of SARS-CoV Urbani / Binding of serum 37 to looped/cyclic peptides of protein N of SARS-CoV Urbani / Binding of serum 62 to looped/cyclic peptides of protein N of SARS-CoV Urbani / Binding of serum London to looped/cyclic peptides of protein N of SARS-CoV Urbani / Binding of serum SARS-green to looped/cyclic peptides of protein N of SARS-CoV Urbani: unit not given here
[2] = test system: control sera (pooled serum of ten healthy LUMC hospital workers; commercial negative donor pooled serum from the Dutch bloodbank); type: binding, human; set-up: Binding of Control serum LUMC to linear peptides / Binding of Control serum Blood-bank to linear peptides / Binding of Control serum LUMC to looped peptides / Binding of Control Serum Blood-Bank to Looped peptides / Binding of Control serum LUMC to linear peptides of the protein M of SARS-CoV Urbani / Binding of Control serum Blood-bank to linear peptides of the protein M of SARS-CoV Urbani / Binding of Control serum LUMC to looped peptides of the protein M of SARS-CoV Urbani / Binding of Control Serum Blood-Bank to Looped peptides of the protein M of SARS-CoV Urbani: unit not given here
[3] = test system: rabbit serum obtained by immunizing a rabbit with the SARS-CoV strain Frankfurt 1; type: binding; set-up: Binding of a rabbit serum to linear peptides / Binding of a rabbit serum to looped peptides / Rabbit serum linear peptides / Rabbit serum looped peptides / Binding of a rabbit serum to linear peptides of protein N of SARS-CoV Urbani (Rabbit serum linear peptides) / Binding of a rabbit serum to looped/cyclic peptides of protein N of SARS-CoV Urbani (Rabbit serum looped peptides): unit not given here

Sequence | Binding of serum 1a to linear peptides of protein X2 [1] | Binding of serum 1a to looped/cyclic peptides of protein X2 of SARS-CoV Urbani [1] | Binding of serum 1b to linear peptides of protein X2 [1] | Binding of serum 1b to looped/cyclic peptides of protein X2 of SARS-CoV Urbani [1] | Binding of serum 2 to linear peptides of protein X2 [1] | Binding of serum 2 to looped/cyclic peptides of protein X2 of SARS-CoV Urbani [1] | Binding of serum 6 to linear peptides of protein X2 [1] | Binding of serum 6 to looped/cyclic peptides of protein X2 of SARS-CoV Urbani [1] | Binding of serum 37 to linear peptides of protein X2 [1] | Binding of serum 37 to looped/cyclic peptides of protein X2 of SARS-CoV Urbani [1] | Binding of serum 62 to linear peptides of protein X2 [1] | Binding of serum 62 to looped/cyclic peptides of protein X2 of SARS-CoV Urbani [1] | Binding of serum London to linear peptides of protein X2 [1] | Binding of serum London to looped/cyclic peptides of protein X2 of SARS-CoV Urbani [1] | Binding of Control Serum Blood-Bank to Looped peptides [2] | Binding of Control serum Blood-bank to linear peptides [2] | Binding of Control serum LUMC to linear peptides [2] | Binding of Control serum LUMC to looped peptides [2] | Binding of a rabbit serum to linear peptides [3] | Binding of a rabbit serum to looped peptides [3] | also measured
LYMAISPKFTTSLSL | 0.7 | 0.6 | 0.5 | 0.5 | 0.5 | 0.5 | 0.3 | 0.5 | 0.6 | 0.5 | 0.6 | 0.7 | 0.3 | 0.6 | 0.7 | 0.6 | 0.3 | 0.8 | 0.3 | 0.5 | Binding of serum SARS-green to linear peptides of protein X2 [1]: 0.5; Binding of serum SARS-green to looped/cyclic peptides of protein X2 of SARS-CoV Urbani [1]: 0.4; Binding of serum SARS-yellow to linear peptides of protein X2 [1]: 0.6; Binding of serum SARS-yellow to looped/cyclic peptides of protein X2 of SARS-CoV Urbani [1]: 0.5
MCKYTQSTALQELLI | 0.8 | 0.6 | 0.7 | 0.6 | 0.6 | 0.5 | 0.5 | 0.3 | 0.6 | 0.7 | 0.8 | 0.8 | 0.5 | 0.2 | 0.8 | 0.9 | 0.7 | 0.7 | 0.2 | 0.4 | Binding of serum SARS-green to linear peptides of protein X2 [1]: 0.8; Binding of serum SARS-green to looped/cyclic peptides of protein X2 of SARS-CoV Urbani [1]: 0.7; Binding of serum SARS-yellow to linear peptides of protein X2 [1]: 0.7; Binding of serum SARS-yellow to looped/cyclic peptides of protein X2 of SARS-CoV Urbani [1]: 0.4
MCLKILVRYNTRGNT |  |  |  |  |  |  |  |  |  |  |  |  |  |  | 0.4 | 0.8 | 0.6 | 0.5 |  |  | Binding of serum 1a to linear peptides of protein X5 of SARS-CoV Urbani [1]: 0.8; Binding of serum 1a to looped/cyclic peptides of protein X5 of SARS-CoV Urbani [1]: 0.5; Binding of serum 1b to linear peptides of protein X5 of SARS-CoV Urbani [1]: 0.6; Binding of serum 1b to looped/cyclic peptides of protein X5 of SARS-CoV Urbani [1]: 0.3; Binding of serum 2 to linear peptides of protein X5 of SARS-CoV Urbani [1]: 0.8; Binding of serum 2 to looped/cyclic peptides of protein X5 of SARS-CoV Urbani [1]: 0.5; Binding of serum 6 to linear peptides of protein X5 of SARS-CoV Urbani [1]: 1.4; Binding of serum 6 to looped/cyclic peptides of protein X5 of SARS-CoV Urbani [1]: 0.4; Binding of serum 37 to linear peptides of protein X5 of SARS-CoV Urbani [1]: 0.9; Binding of serum 37 to looped/cyclic peptides of protein X5 of SARS-CoV Urbani [1]: 0.5; Binding of serum 62 to linear peptides of protein X5 of SARS-CoV Urbani [1]: 0.9; Binding of serum 62 to looped/cyclic peptides of protein X5 of SARS-CoV Urbani [1]: 0.7; Binding of serum London to linear peptides of protein X5 of SARS-CoV Urbani [1]: 0.8; Binding of serum London to looped/cyclic peptides of protein X5 of SARS-CoV Urbani [1]: 0.4; Binding of serum SARS-green to linear peptides of protein X5 of SARS-CoV Urbani [1]: 0.9; Binding of serum SARS-green to looped/cyclic peptides of protein X5 of SARS-CoV Urbani [1]: 0.2; Binding of serum SARS-yellow to linear peptides of protein X5 of SARS-CoV Urbani [1]: 0.7; Binding of serum SARS-yellow to looped/cyclic peptides of protein X5 of SARS-CoV Urbani [1]: 0.8; Rabbit serum linear peptides [3]: 0.7; Rabbit serum looped peptides [3]: 0.5
MDLFMRFFTLGSITA |  |  |  |  |  |  |  |  |  |  |  |  |  |  | 0.6 | 0.7 | 0.6 | 0.6 | 0.5 | 0.5 | Binding of serum 1a to linear peptides of protein X1 of SARS-CoV Urbani [1]: 0.8; Binding of serum 1a to looped/cyclic peptide (PEPSCAN-ELISA) [1]: 0.5; Binding of serum 1b to linear peptides of protein X1 of SARS-CoV Urbani [1]: 0.7; Binding of serum 1b to looped/cyclic peptide (PEPSCAN-ELISA) [1]: 0.3; Binding of serum 2 to linear peptides of protein X1 of SARS-CoV Urbani [1]: 0.7; Binding of serum 2 to looped/cyclic peptide (PEPSCAN-ELISA) [1]: 0.4; Binding of serum 6 to linear peptides of protein X1 of SARS-CoV Urbani [1]: 0.5; Binding of serum 6 to looped/cyclic peptide (PEPSCAN-ELISA) [1]: 1.0; Binding of serum 37 to linear peptides of protein X1 of SARS-CoV Urbani [1]: 0.7; Binding of serum 37 to looped/cyclic peptide (PEPSCAN-ELISA) [1]: 0.4; Binding of serum 62 to linear peptides of protein X1 of SARS-CoV Urbani [1]: 0.7; Binding of serum 62 to looped/cyclic peptide (PEPSCAN-ELISA) [1]: 0.5; Binding of serum London to linear peptides of protein X1 of SARS-CoV Urbani [1]: 0.3; Binding of serum London to looped/cyclic peptide (PEPSCAN-ELISA) [1]: 0.8; Binding of serum SARS-green to linear peptides of protein X1 of SARS-CoV Urbani [1]: 0.6; Binding of serum SARS-green to looped/cyclic peptide (PEPSCAN-ELISA) [1]: 0.4; Binding of serum SARS-yellow to linear peptides of protein X1 of SARS-CoV Urbani [1]: 0.5; Binding of serum SARS-yellow to looped/cyclic peptide (PEPSCAN-ELISA) [1]: 0.5
